The values below come from patent US12697319B2, “Methods for inhibiting the progression of neurodegenerative diseases” (BioJiva LLC, priority 2021, dated 2026).

Like-named read-outs stand apart in the source and are kept apart here.

In one series the test system is murine fibroblasts. As to conditions: fold vs D2-AA; erastin-treated murine fibroblasts.
The nature of series [1]: Concentration of D2-LA and D2-AA in RBCs of the same single patient (Example 1). The following applies: extrapolated from the 3 and 6 month values. An excerpt: This example determines the relative concentration of D2-AA in the CSF and in RBCs in order to determine a correlation between these two concentrations. Specifically, a patient was continuously provided with a daily dose of 9 grams of D2-LA ethyl ester (which is 8.64 grams of active discounting for impurities and removal of the ethyl ester) over about a six-month period. […] In all cases, the D2-AA was obtained by deacylation of the ethyl ester of linoleic acid in the gastrointestinal tract followed by conversion of D2-LA in vivo to D2-AA.

The conditions of series [2]: for Concentration of D2-AA in the RBCs, high: highest of cohort; for Concentration of D2-AA in the RBCs, low: lowest of cohort. As for the experimental part: In this example, children suffering from INAD were treated with a daily dose of 3.9 grams of D2-LA ethyl ester followed by 2.9 grams of D2-LA ethyl ester. Given the age and weight of these children, such is assumed to be substantially equivalent to a loading dose of from about 7 and about 12 grams per day for an adult patient for an adult patient and a maintenance dose which is less than the loading dose again for an adult patient.
This example also determines the concentration of D2-AA in RBCs. Specifically, a cohort of 14 children was provided with a daily dose of 3.9 grams of D2-LA ethyl ester for 1 month followed by 2.9 grams of D2-LA ethyl ester for the remaining six-month period. Blood samples were taken at 3 months for all but 1 child and at 6 months for all children. The concentration of D2-AA in RBCs was measured.

A further series has as its system patients with ALS. Nature of the series: ALSFRS-R functional decline in cohort of 3 ALS patients on primer plus maintenance dosing of D2-LA ethyl ester (Example 3). The class given is in vivo, human. The following applies: about 9 grams daily for at least 30 days then 5 grams, natural history 21. As for the experimental part: As set forth in the examples below, the rate of functional decline is predicated on measuring an individual's, or a cohort's, average for the natural history of disease progression. Next, the individual or cohort average for the functional decline is determined at a period of time such as at 3, 6 or 12 months after initiation of therapy. The rate of decline based on the average of the natural history of the cohort is set as the denominator. The numerator is set as the delta between the rate of the natural history of disease progression and the rate of functional decline after a set period of treatment per this invention. The resulting fraction is the multiplied by 100 to give a percent change. The following exemplifies this analysis. […]
The functionality of each of the patients was evaluated periodically using the ALSFRS-R protocol. […] Before initiation of therapy, the natural history of each patient in the cohort was determined and an average annual rate of functional decline was measured at 21.
The annualized progression of the disease, as measured by an average annual rate of functional decline for all three patients starting at the time that dosing began and terminating at the end of the dosing regimen and then annualized as described above, was measured as 2.1. […]

Procedure for murine fibroblasts: In this example, two different pools of cells were each seeded in 48-well plates and treated with 50 micromolar of erastin.
Afterwards, cell viability was measured by plate dilution assay to distinguish between cells that are alive and those that are dead on a Petri dish.

For `[2H]C([2H])(/C=C\CCCCC)/C=C\C([2H])([2H])/C=C\C([2H])([2H])/C=C\CCCC(=O)O`, the “Level of protection against LPO induced cell death relative to 13,13-D2-arachidonic acid” value in the series on murine fibroblasts is on record as “approximately twice”.
With `[2H]C([2H])(/C=C\C/C=C\C/C=C\CCCC(=O)O)/C=C\CCCCC` [D2-AA, 13,13-D2-Arachidonic Acid], the “Amount of D2-AA at 1 month in RBCs (estimated by linear extrapolation, FIG. 1)” value in series [1] is on record as “about 3%”. In addition, in series [2] (3 months), the “Concentration of D2-AA in the RBCs, high” value was found to be 16.8% and the “Concentration of D2-AA in the RBCs, low” value worked out at 6.8%. Moreover, in series [2] (6 months), the “Concentration of D2-AA in the RBCs, high” value is reported as 26.1% and the “Concentration of D2-AA in the RBCs, low” value is reported as 12.0%.
Regarding `[2H]C([2H])(/C=C\CCCCC)/C=C\CCCCCCCC(=O)OCC` [D2-LA ethyl ester, 11,11-D2-linoleic acid ethyl ester], the “Average annual rate of functional decline during dosing (ALSFRS-R), annualized” value with patients with ALS came to 2.1.
